Test results published in ChEMBL document CHEMBL1125608, “Synthesis and biological activity of angiotensin II analogues containing a Val-His replacement, Val psi[CH(CONH2)NH]His” (J Med Chem, 1991).
Peptide text beside a SMILES is read from it. * marks the point of attachment. Propanoyl(3-(4-MeO-Ph)) = COc1ccc(CCC(=O)*)cc1; Desaminotyrosyl = O=C(CCc1ccc(O)cc1)*; Cbz = O=C(OCc1ccccc1)*

Tests used:
[1] = molecular target: Angiotensin II receptor (Cavia porcellus); assay: Inhibitory activity as antagonist of AII on guinea pig ileum
Cavia porcellus = species on record: Cavia porcellus; assay: The compound was tested for its inhibitory activity as antagonist of AI on guinea pig ileum; assay type: functional, organism-based
[2] = molecular target: Angiotensin II receptor (Cavia porcellus); assay: The compound was tested for its inhibitory activity as antagonist of AII on guinea pig ileum
[3] = test system: Angiotensin II receptor (Oryctolagus cuniculus); assay: Displacement of [3H]Angiotensin II (300 ng/mL) from rabbit adrenal cortex

Compound | IC50 [1] | IC50 (Cavia porcellus) | IC50 [2] | Displacement [3]
CC[C@H](C)[C@H](NC(=O)[C@@H]1CCCN1C(=O)[C@H](Cc1c[nH]cn1)N[C@H](C(N)=O)[C@@H](NC(=O)[C@H](Cc1ccc(O)cc1)NC(=O)[C@@H](NC(=O)[C@H](CCCN=C(N)N)NC(=O)CNC)C(C)C)C(C)C)C(=O)O | 330 nM | 345 nM | – | –
CC[C@H](C)[C@H](NC(=O)[C@@H]1CCCN1C(=O)[C@H](Cc1c[nH]cn1)NC(C(N)=O)[C@@H](NC(=O)OCc1ccccc1)C(C)C)C(=O)O (some centres undefined) | – | > 15000 nM | > 15000 nM | –
CC[C@H](C)[C@H](NC(=O)[C@H](Cc1ccc(O)cc1)NC(=O)[C@@H](NC(=O)[C@H](CCCN=C(N)N)NC(=O)CNC)C(C)C)C(=O)N[C@@H](Cc1c[nH]cn1)C(=O)N1CCC[C@H]1C(=O)N[C@@H](C)C(=O)O | – | 0.56 nM | – | –
CC[C@H](C)[C@H](NC(=O)[C@@H]1CCCN1C(=O)[C@H](Cc1c[nH]cn1)NC(=O)[C@@H](NC(=O)[C@H](Cc1ccc(O)cc1)NC(=O)[C@@H](NC(=O)[C@H](CCCN=C(N)N)NC(=O)CNC)C(C)C)[C@@H](C)CC)C(=O)O | – | 0.17 nM | – | –
CC[C@H](C)[C@H](NC(=O)[C@@H]1CCCN1C(=O)[C@H](Cc1c[nH]cn1)NC(=O)[C@@H](NC(=O)[C@H](Cc1ccc(O)cc1)NC(=O)[C@@H](NC(=O)[C@H](CCCN=C(N)N)NC(=O)CNC)C(C)C)C(C)C)C(=O)O | 0.45 nM | 0.51 nM | – | 100%
CC[C@H](C)[C@H](NC(=O)[C@@H]1CCCN1C(=O)[C@H](Cc1c[nH]cn1)NC(=O)[C@@H](NC(=O)OCc1ccccc1)C(C)C)C(=O)O (Cbz-VHPI-OH) | > 15000 nM | > 15000 nM | – | 10%
CC[C@H](C)[C@H](NC(=O)[C@@H]1CCCN1C(=O)[C@H](Cc1c[nH]cn1)NC(=O)[C@@H](NC(=O)CCc1ccc(O)cc1)C(C)C)C(=O)O (Desaminotyrosyl-VHPI-OH) | > 15000 nM | > 15000 nM | – | 0%
CC[C@H](C)[C@H](NC(=O)[C@@H]1CCCN1C(=O)[C@H](Cc1c[nH]cn1)NC(=O)[C@@H](NC(=O)CCc1ccc(OC)cc1)C(C)C)C(=O)O ({Propanoyl(3-(4-MeO-Ph))}-VHPI-OH) | > 15000 nM | > 15000 nM | – | 0%
CNCC(=O)N[C@@H](CCCNC(=N)N)C(=O)N[C@H](C(=O)N[C@@H](Cc1ccc(O)cc1)C(=O)N[C@H](C(=O)N[C@@H](Cc1cnc[nH]1)C(=O)N1CCC[C@H]1C(=O)N[C@@H](C)C(=O)O)C(C)C)C(C)C [SARALASIN] | – | 0.048 nM | – | –
